Experimental data as given in patent US11407760B2, “Dioxinoquinoline compounds, preparation method and uses thereof” (BEIJING SCITECH-MQ PHARMACEUTICALS LIMITED, priority 2018, dated 2022).
pIC50: −log10 of the molar value.

Test system: MHCC97H cells
Assay: Inhibitory activity on the proliferation of MHCC97H cells (CCK-8)
Format: cell-based
Settings: Homo sapiens, MHCC97H cell proliferation, 72 hours of incubation
Method: Biological Example 3. Assay of the Inhibitory Activity of Small Molecular Compounds on the Proliferation of MHCC97H Cells
The specific steps of the assay are as follows:
1. Dilution of compounds: a total of 9 concentrations were obtained using a 3-fold gradient dilution from the highest concentration of 5000 nM (the maximum final concentration of the drug used in this assay was 5000 nM, and the minimum final concentration was 0.76 nM).
2. MHCC97H cells were collected, then transferred to a 15 mL centrifuge tube, and centrifuged at 1000 rpm for 5 minutes.
3. The supernatant was discarded, and the complete medium was added and pipetted evenly, 10 μL of cell suspension was taken out and mixed evenly with 10 μL of 0.4% trypan blue, the counting was carried out with a cell counter, and the number and survival rate of cells were recorded;
4. The cell suspension was seeded into a 96-well plate at 5000 cells/80 μL per well;
5. 20 μL of the corresponding 5× compound solution diluted with the medium mentioned above was added to each well and mixed evenly;
6. After 72 hours of incubation, 10 μL of CCK-8 reagent was added to each well and incubated for another 2 hours (the reaction time can be adjusted according to the color depth);
7. The OD value was read at 450 nm on a multi-function plate reader.
8. Data processing: cell survival rate (%)=[(As−Ab)/(Ac−Ab)]*100%
As: OD value of assay well (medium containing cells, CCK-8, compound),
Ac: OD value of control well (medium containing cells, CCK-8),
Ab: OD value of blank well (CCK-8, medium without cell and compound),
The values were then imported into Graphpad Prism5 software for curve fitting, and IC50 was calculated.
Table 3 lists the assay results of the inhibitory activity of some compounds disclosed herein on the proliferation of the MHCC97H cell line.

| SMILES | pIC50 |
| --- | --- |
| COc1cc2nccc(Oc3ccc(NC(=O)C4(C(=O)Nc5ccc(F)cc5)CC4)cc3)c2c2c1OCCO2 [Example 1, N-(4-fluorophenyl)-N-(4-((5-methoxy-2,3-dihydro-[1,4]dioxino[2,3-f]quinolin-10-yl)oxy)phenyl)cyclopropan-1,1-dicarboxamide] | > 7.30 |
| COc1cc2nccc(Oc3ccc(NC(=O)C4(C(=O)Nc5ccc(F)cc5)CC4)cc3F)c2c2c1OCCO2 [Example 2, N-(3-fluoro-4-((5-methoxy-2,3-dihydro-[1,4]dioxino[2,3-f]quinolin-10-yl)oxy)phenyl)-N-(4-fluorophenyl)cyclopropan-1,1-dicarboxamide] | > 7.30 |
| COc1cc2nccc(Oc3ccc(NC(=O)C4(C(=O)Nc5ccc(F)cc5)CC4)c(F)c3)c2c2c1OCCO2 [Example 3, N-(2-fluoro-4-((5-methoxy-2,3-dihydro-[1,4]dioxino[2,3-f]quinolin-10-yl)oxy)phenyl)-N-(4-fluorophenyl)cyclopropan-1,1-dicarboxamide] | > 7.30 |
| O=C(Nc1ccc(F)cc1)C1(C(=O)Nc2ccc(Oc3ccnc4cc(OCCCN5CCOCC5)c5c(c34)OCCO5)cc2)CC1 [Example 4, N-(4-fluorophenyl)-N-(4-((5-(3-morpholinopropoxy)-2,3-dihydro-[1,4]dioxino[2,3-f]quinolin-10-yl)oxy)phenyl)cyclopropan-1,1-dicarboxamide] | > 7.30 |
| O=C(Nc1ccc(F)cc1)C1(C(=O)Nc2ccc(Oc3ccnc4cc(OCCCN5CCOCC5)c5c(c34)OCCO5)c(F)c2)CC1 [Example 5, N-(3-fluoro-4-((5-(3-morpholinopropoxy)-2,3-dihydro-[1,4]dioxino[2,3-f]quinolin-10-yl)oxy)phenyl)-N-(4-fluorophenyl)cyclopropan-1,1-dicarboxamide] | > 7.30 |
| O=C(Nc1ccc(F)cc1)C1(C(=O)Nc2ccc(Oc3ccnc4cc(OCCCN5CCOCC5)c5c(c34)OCCO5)cc2F)CC1 [Example 6, N-(2-fluoro-4-((5-(3-morpholinopropoxy)-2,3-dihydro-[1,4]dioxino[2,3-f]quinolin-10-yl)oxy)phenyl)-N-(4-fluorophenyl)cyclopropan-1,1-dicarboxamide] | > 7.30 |
| CCOc1cc2nccc(Oc3ccc(NC(=O)C4(C(=O)Nc5ccc(F)cc5)CC4)cc3F)c2c2c1OCCO2 [Example 7, N-(4-((5-ethoxy-2,3-dihydro-[1,4]dioxino[2,3-f]quinolin-10-yl)oxy)-3-fluorophenyl)-N-(4-fluorophenyl)cyclopropan-1,1-dicarboxamide] | > 7.30 |
| CN(C)CCCOc1cc2nccc(Oc3ccc(NC(=O)C4(C(=O)Nc5ccc(F)cc5)CC4)cc3F)c2c2c1OCCO2 [Example 8, N-(4-((5-(3-(dimethylamino)propoxy)-2,3-dihydro-[1,4]dioxino[2,3-f]quinolin-10-yl)oxy)-3-fluorophenyl)-N-(4-fluorophenyl)cyclopropan-1,1-dicarboxamide] | > 7.30 |
| O=C(Nc1ccc(F)cc1)C1(C(=O)Nc2ccc(Oc3ccnc4cc(OCCCN5CCCCC5)c5c(c34)OCCO5)c(F)c2)CC1 [Example 9, N-(4-((5-(3-(piperidin-1-yl)propoxy)-2,3-dihydro-[1,4]dioxino[2,3-f]quinolin-10-yl)oxy)-3-fluorophenyl)-N-(4-fluorophenyl)cyclopropan-1,1-dicarboxamide] | > 7.30 |
| COCCOc1cc2nccc(Oc3ccc(NC(=O)C4(C(=O)Nc5ccc(F)cc5)CC4)cc3F)c2c2c1OCCO2 [Example 10, N-(3-fluoro-4-((5-(2-methoxyethoxy)-2,3-dihydro-[1,4]dioxino[2,3-f]quinolin-10-yl)oxy)phenyl)-N-(4-fluorophenyl)cyclopropan-1,1-dicarboxamide] | > 7.30 |
| O=C(Nc1ccc(F)cc1)C1(C(=O)Nc2ccc(Oc3ccnc4cc(OCCCO)c5c(c34)OCCO5)c(F)c2)CC1 [Example 13, N-(3-fluoro-4-((5-(3-hydroxypropoxy)-2,3-dihydro-[1,4]dioxino[2,3-f]quinolin-10-yl)oxy)phenyl)-N-(4-fluorophenyl)cyclopropan-1,1-dicarboxamide] | > 7.30 |
| COCCCOc1cc2nccc(Oc3ccc(NC(=O)C4(C(=O)Nc5ccc(F)cc5)CC4)cc3F)c2c2c1OCCO2 [Example 14, N-(3-fluoro-4-((5-(3-methoxypropoxy)-2,3-dihydro-[1,4]dioxino[2,3-f]quinolin-10-yl)oxy)phenyl)-N-(4-fluorophenyl)cyclopropan-1,1-dicarboxamide] | > 7.30 |
| COCCN(C)CCCOc1cc2nccc(Oc3ccc(NC(=O)C4(C(=O)Nc5ccc(F)cc5)CC4)cc3F)c2c2c1OCCO2 [Example 15, N-(3-fluoro-4-((5-(3-((2-methoxyethyl)(methyl)amino)propoxy)-2,3-dihydro-[1,4]dioxino [2,3-f]quinolin-10-yl)oxy)phenyl)-N-(4-fluorophenyl)cyclopropan-1,1-dicarboxamide] | > 7.30 |
| O=C(Nc1ccc(F)cc1)C1(C(=O)Nc2ccc(Oc3ccnc4cc(OC5CCOC5)c5c(c34)OCCO5)c(F)c2)CC1 (centres unmarked) [Example 17, N-(3-fluoro-4-((5-((tetrahydrofuran-3-yl)oxy)-2,3-dihydro-[1,4]dioxino[2,3-f]quinolin-10-yl)oxy)phenyl)-N-(4-fluorophenyl)cyclopropan-1,1-dicarboxamide] | > 7.30 |
| CN1CCN(CCCOc2cc3nccc(Oc4ccc(NC(=O)C5(C(=O)Nc6ccc(F)cc6)CC5)cc4F)c3c3c2OCCO3)CC1 [Example 21, N-(4-((5-(3-(4-methylpiperazin-1-yl)propoxy)-2,3-dihydro-[1,4]dioxino[2,3-f]quinolin-10-yl)oxy)-3-fluorophenyl)-N-(4-fluorophenyl)cyclopropan-1,1-dicarboxamide] | > 7.30 |
| CC1(O)CCN(CCCOc2cc3nccc(Oc4ccc(NC(=O)C5(C(=O)Nc6ccc(F)cc6)CC5)cc4F)c3c3c2OCCO3)CC1 [Example 22, N-(3-fluoro-4-((5-(3-(4-hydroxy-4-methylpiperidin-1-yl)propoxy)-2,3-dihydro-[1,4]dioxino[2,3-f]quinolin-10-yl)oxy)phenyl)-N-(4-fluorophenyl)cyclopropan-1,1-dicarboxamide] | > 7.30 |
| CN(CCCOc1cc2nccc(Oc3ccc(NC(=O)C4(C(=O)Nc5ccc(F)cc5)CC4)cc3F)c2c2c1OCCO2)C1CCC1 [Example 23, N-(4-((5-(3-(cyclobutyl(methyl)amino)propoxy)-2,3-dihydro-[1,4]dioxino[2,3-f]quinolin-10-yl)oxy)-3-fluorophenyl)-N-(4-fluorophenyl)cyclopropan-1,1-dicarboxamide] | > 7.30 |
| O=C(Nc1ccc(F)cc1)C1(C(=O)Nc2ccc(Oc3ccnc4cc(OCCCN5CCS(=O)(=O)CC5)c5c(c34)OCCO5)c(F)c2)CC1 [Example 24, N-(4-((5-(3-(1,1-dioxothiomorpholin-4-yl)propoxy)-2,3-dihydro-[1,4]dioxino[2,3-f]quinolin-10-yl)oxy)-3-fluorophenyl)-N-(4-fluorophenyl)cyclopropan-1,1-dicarboxamide] | > 7.30 |
| O=C(Nc1ccc(F)cc1)C1(C(=O)Nc2ccc(Oc3ccnc4cc(OCCCN5CCCC5)c5c(c34)OCCO5)c(F)c2)CC1 [Example 25, N-(3-fluoro-4-((5-(3-(pyrrolidin-1-yl)propoxy)-2,3-dihydro-[1,4]dioxino[2,3-f]quinolin-10-yl)oxy)phenyl)-N-(4-fluorophenyl)cyclopropan-1,1-dicarboxamide] | > 7.30 |
| N#CCCCOc1cc2nccc(Oc3ccc(NC(=O)C4(C(=O)Nc5ccc(F)cc5)CC4)cc3F)c2c2c1OCCO2 [Example 26, N-(3-fluoro-4-((5-(3-cyanopropoxy)-2,3-dihydro-[1,4]dioxino[2,3-f]quinolin-10-yl)oxy)phenyl)-N-(4-fluorophenyl)cyclopropan-1,1-dicarboxamide] | > 7.30 |
| CN(C)CCCCCCOc1cc2nccc(Oc3ccc(NC(=O)C4(C(=O)Nc5ccc(F)cc5)CC4)cc3F)c2c2c1OCCO2 [Example 27, N-(4-((5-((6-(dimethylamino)hexyl)oxy)-2,3-dihydro-[1,4]dioxino[2,3-f]quinolin-10-yl)oxy)-3-fluorophenyl)-N-(4-fluorophenyl)cyclopropan-1,1-dicarboxamide] | > 7.30 |
| O=C(Nc1ccc(F)cc1)C1(C(=O)Nc2ccc(Oc3ccnc4cc(OC5COC5)c5c(c34)OCCO5)c(F)c2)CC1 [Example 28, N-(3-fluoro-4-((5-(oxetan-3-yloxy)-2,3-dihydro-[1,4]dioxino[2,3-f]quinolin-10-yl)oxy)phenyl)-N-(4-fluorophenyl)cyclopropan-1,1-dicarboxamide] | > 7.30 |
| CC1(C)CCN(CCCOc2cc3nccc(Oc4ccc(NC(=O)C5(C(=O)Nc6ccc(F)cc6)CC5)cc4F)c3c3c2OCCO3)CC1 [Example 29, N-(3-fluoro-4-((5-(3-(4,4-dimethylpiperidin-1-yl)propoxy)-2,3-dihydro-[1,4]dioxino[2,3-f]quinolin-10-yl)oxy)phenyl)-N-(4-fluorophenyl)cyclopropan-1,1-dicarboxamide] | > 7.30 |
